Experimental findings from US12582146B2, “Angiotensin-converting enzyme inhibitor, blood pressure-lowering agent, and beverages and food products” (priority 2019, dated 2026) are described below.

The target in the assay is angiotensin-converting enzyme (ACE) (UniProt P12822). In words: Test of effect of inhibiting angiotensin-converting enzyme (Hippuryl-His-Leu substrate, hippuric acid measured by HPLC). Format: biochemical. Here is the method: [Test Example 1] Test of Effect of Inhibiting Angiotensin-Converting Enzyme Conducted on Compound (I)
The effect of inhibiting an angiotensin-converting enzyme was tested on the compound (I) (sample 1) as explained below.
A sample solution (sample 1), obtained by suitably dissolving in and diluting with distilled water, and distilled water respectively in an amount of 50 μL were dispensed into test tubes (10 mL). A substrate solution was dispensed respectively in an amount of 250 μL and mixed. The test tubes were preheated in a thermostatic water-tank at 37° C. for 5 minutes. The preheated test tubes were added with an ACE solution in an amount of 100 μL, agitated immediately and brought to react in the thermostatic water-tank at 37° C. for 45 minutes. After the reaction finished, 3% metaphosphate solution in an amount of 3.6 mL was added and agitated to end reaction. The inactivated solution was subjected to HPLC analysis and isolated hippuric acid was measured. Based on a hippuric acid peak area and solid amount (concentration and weighed amount) from the HPLC, an ACE inhibition rate (%) was obtained.
A substrate solution was prepared to obtain a boric acid buffering solution (pH 8.3) with 8 mM substrate (Hippuryl-His-Leu produced by PEPTIDE INSTITUTE, INC.) and 640 mM sodium chloride. An ACE solution was prepared to obtain a boric acid buffering solution with 30 mU/mL ACE (produced by Sigma-Aldrich Co. LLC).
<Liquid Chromatography Condition >
Column: Wakosil-II 5C18 HG (4.5mm I.D.×150mm produced by Wako Pure Chemical Industries, Ltd.)
• Column Temperature: 40° C. • Mobile Phase: 20 mM KH2PO4·H3PO4 (pH 3.0): Methanol (57:43, v/v) • Flow Rate: 1.0 mL/min. • Detection Wavelength: 228 nm • Feed Amount: 20 μL

angiotensin-converting enzyme (ACE), sequence (P12822 whole entry): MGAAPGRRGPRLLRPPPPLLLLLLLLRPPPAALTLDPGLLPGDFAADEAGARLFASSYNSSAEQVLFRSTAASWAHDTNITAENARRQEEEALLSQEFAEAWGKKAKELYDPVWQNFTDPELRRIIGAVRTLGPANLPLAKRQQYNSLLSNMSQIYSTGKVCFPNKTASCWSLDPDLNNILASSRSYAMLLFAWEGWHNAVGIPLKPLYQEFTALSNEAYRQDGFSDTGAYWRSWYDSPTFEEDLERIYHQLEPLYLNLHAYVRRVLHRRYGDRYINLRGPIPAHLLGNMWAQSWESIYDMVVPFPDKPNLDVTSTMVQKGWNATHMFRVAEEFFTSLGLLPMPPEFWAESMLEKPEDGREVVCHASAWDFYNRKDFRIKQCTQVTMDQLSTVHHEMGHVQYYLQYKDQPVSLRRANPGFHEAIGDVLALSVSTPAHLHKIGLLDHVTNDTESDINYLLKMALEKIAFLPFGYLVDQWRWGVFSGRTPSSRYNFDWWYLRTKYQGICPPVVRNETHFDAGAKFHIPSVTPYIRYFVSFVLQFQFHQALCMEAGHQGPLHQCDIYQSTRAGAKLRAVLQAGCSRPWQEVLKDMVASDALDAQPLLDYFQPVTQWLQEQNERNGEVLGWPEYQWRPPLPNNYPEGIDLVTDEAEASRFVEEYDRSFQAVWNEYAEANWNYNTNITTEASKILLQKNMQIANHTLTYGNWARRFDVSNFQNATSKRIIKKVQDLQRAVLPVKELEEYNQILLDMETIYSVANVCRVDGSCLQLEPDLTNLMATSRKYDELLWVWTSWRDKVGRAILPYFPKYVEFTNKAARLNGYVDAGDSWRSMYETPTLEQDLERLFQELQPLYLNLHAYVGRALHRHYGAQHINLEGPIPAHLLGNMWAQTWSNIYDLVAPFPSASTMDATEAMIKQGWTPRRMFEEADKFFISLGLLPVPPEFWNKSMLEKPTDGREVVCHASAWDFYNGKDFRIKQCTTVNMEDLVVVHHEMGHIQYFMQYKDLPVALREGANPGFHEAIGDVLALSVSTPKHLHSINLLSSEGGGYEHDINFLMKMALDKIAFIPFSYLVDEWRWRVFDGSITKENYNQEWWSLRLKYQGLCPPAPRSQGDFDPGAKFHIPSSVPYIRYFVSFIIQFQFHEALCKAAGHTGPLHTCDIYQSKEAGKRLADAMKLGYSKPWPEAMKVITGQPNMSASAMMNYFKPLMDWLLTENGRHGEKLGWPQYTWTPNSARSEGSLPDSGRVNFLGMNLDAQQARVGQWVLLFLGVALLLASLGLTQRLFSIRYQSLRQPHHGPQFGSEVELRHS

As for `COc1cc(CCC(=O)O)ccc1O` [compound (I), 3-(4-hydroxy-3-methoxyphenyl)propionic acid], the IC50 (37° C., 45 minutes reaction, read-out: IC50 (concentration of the sample in the reaction solution exhibiting an ACE inhibition rate of 50%) (converted)) was 10.9 mM. The “ACE Inhibition Rate” value reads like this: (sample concentration 943.25 μg/mL) 21.6%; (sample concentration 1886.50 μg/mL) 41.1%; (sample concentration 3773.00 μg/mL) 73.2%.
